{"source": "ChEMBL document CHEMBL1275493", "about": "“Anti-human immunodeficiency virus type 1 activities of antimicrobial peptides derived from human and bovine cathelicidins” (Antimicrob Agents Chemother, 2008)", "note": "Peptide text beside a SMILES is read from it."}
{"tested_on": "Human immunodeficiency virus 1", "experiment": "Antiviral activity against Human immunodeficiency virus 1 3B infected in CEM-SS cells", "assay_type": "functional, organism-based", "details": "not given", "units": {"EC50": "µM"}}
{"compound": "CC[C@H](C)[C@H](NC(=O)[C@H](CCCCN)NC(=O)[C@H](CCCCN)NC(=O)[C@H](Cc1ccccc1)NC(=O)[C@H](CC(C)C)NC(=O)[C@H](CCCCN)NC(=O)[C@H](CCCCN)NC(=O)[C@H](CC(C)C)NC(=O)[C@H](CCCCN)NC(=O)[C@H](CCCCN)NC(=O)[C@H](CCCNC(=N)N)NC(=O)[C@@H](NC(=O)[C@H](CCCNC(=N)N)NC(=O)[C@H](CCCCN)NC(=O)[C@H](Cc1ccccc1)NC(=O)[C@H](CCCNC(=N)N)NC(=O)CN)[C@@H](C)CC)C(=O)N[C@@H](CO)C(=O)O", "note": "(H-GRFKRIRKKLKKLFKKIS-OH) [listing 1 of 2 here]", "EC50": "> 44"}
{"compound": "CC[C@H](C)[C@H](NC(=O)[C@H](CCCNC(=N)N)NC(=O)[C@H](CCC(N)=O)NC(=O)[C@@H](NC(=O)[C@@H](NC(=O)[C@H](CCCNC(=N)N)NC(=O)[C@@H](N)CCCCN)[C@@H](C)CC)C(C)C)C(=O)N[C@@H](CCCCN)C(=O)N[C@@H](CC(=O)O)C(=O)N[C@@H](Cc1ccccc1)C(=O)N[C@@H](CC(C)C)C(=O)N[C@@H](CCCNC(=N)N)C(=O)N[C@@H](CC(N)=O)C(=O)N[C@@H](CC(C)C)C(=O)N[C@H](C(=O)N1CCC[C@H]1C(=O)N[C@@H](CCCNC(=N)N)C(=O)N[C@H](C(=O)N[C@@H](CCC(=O)O)C(=O)N[C@@H](CO)C(=O)O)[C@@H](C)O)C(C)C", "note": "(H-KRIVQRIKDFLRNLVPRTES-OH)", "EC50": "> 40.5"}
{"tested_on": "CEM-SS", "experiment": "Cytotoxicity against Human immunodeficiency virus 1 3B infected human CEM-SS cells", "assay_type": "functional", "details": "read-out: TC50 (the source's name)", "units": {"CC50": "µM"}}
{"compound": "CC[C@H](C)[C@H](NC(=O)CN)C(=O)N[C@@H](CCCCN)C(=O)N[C@@H](CCC(N)=O)C(=O)N[C@@H](Cc1ccccc1)C(=O)N[C@@H](CCCCN)C(=O)N[C@@H](CCCNC(=N)N)C(=O)N[C@H](C(=O)N[C@H](C(=O)N[C@@H](CCC(N)=O)C(=O)N[C@@H](CCCNC(=N)N)C(=O)N[C@H](C(=O)N[C@@H](CCCCN)C(=O)N[C@@H](CC(=O)O)C(=O)N[C@@H](Cc1ccccc1)C(=O)N[C@@H](CC(C)C)C(=O)N[C@@H](CCCNC(=N)N)C(=O)N[C@@H](CC(N)=O)C(=O)N[C@@H](CC(C)C)C(=O)N[C@H](C(=O)O)C(C)C)[C@@H](C)CC)C(C)C)[C@@H](C)CC", "note": "(H-GIKQFKRIVQRIKDFLRNLV-OH)", "CC50": 13.7}
{"compound": "CC[C@H](C)[C@H](NC(=O)[C@H](CCCNC(=N)N)NC(=O)[C@H](CCC(N)=O)NC(=O)[C@@H](NC(=O)[C@@H](NC(=O)[C@H](CCCNC(=N)N)NC(=O)[C@@H](N)CCCCN)[C@@H](C)CC)C(C)C)C(=O)N[C@@H](CCCCN)C(=O)N[C@@H](CC(=O)O)C(=O)N[C@@H](Cc1ccccc1)C(=O)N[C@@H](CC(C)C)C(=O)N[C@@H](CCCNC(=N)N)C(=O)N[C@@H](CC(N)=O)C(=O)N[C@@H](CC(C)C)C(=O)N[C@H](C(=O)N1CCC[C@H]1C(=O)N[C@@H](CCCNC(=N)N)C(=O)N[C@H](C(=O)N[C@@H](CCC(=O)O)C(=O)N[C@@H](CO)C(=O)O)[C@@H](C)O)C(C)C", "note": "(H-KRIVQRIKDFLRNLVPRTES-OH)", "CC50": "> 40.5"}
{"compound": "CC[C@H](C)[C@H](NC(=O)[C@H](CCCCN)NC(=O)[C@H](CCCCN)NC(=O)[C@H](Cc1ccccc1)NC(=O)[C@H](CC(C)C)NC(=O)[C@H](CCCCN)NC(=O)[C@H](CCCCN)NC(=O)[C@H](CC(C)C)NC(=O)[C@H](CCCCN)NC(=O)[C@H](CCCCN)NC(=O)[C@H](CCCNC(=N)N)NC(=O)[C@@H](NC(=O)[C@H](CCCNC(=N)N)NC(=O)[C@H](CCCCN)NC(=O)[C@H](Cc1ccccc1)NC(=O)[C@H](CCCNC(=N)N)NC(=O)CN)[C@@H](C)CC)C(=O)N[C@@H](CO)C(=O)O", "note": "(H-GRFKRIRKKLKKLFKKIS-OH) [listing 2 of 2 here]", "CC50": 2.79}
{"compound": "CC[C@H](C)[C@H](NC(=O)CN)C(=O)N[C@@H](CCCCN)C(=O)N[C@@H](CCC(=O)O)C(=O)N[C@@H](Cc1ccccc1)C(=O)N[C@@H](CCCCN)C(=O)N[C@@H](CCCNC(=N)N)C(=O)N[C@@H](CCC(=O)O)C(=O)N[C@@H](Cc1ccccc1)C(=O)N[C@@H](CCC(N)=O)C(=O)N[C@@H](CCCNC(=N)N)C(=O)N[C@H](C(=O)N[C@@H](CCCCN)C(=O)N[C@@H](CC(=O)O)C(=O)N[C@@H](Cc1ccccc1)C(=O)N[C@@H](CC(C)C)C(=O)N[C@@H](CCCNC(=N)N)C(=O)N[C@@H](CC(N)=O)C(=O)N[C@@H](CC(C)C)C(=O)N[C@H](C(=O)O)C(C)C)[C@@H](C)CC", "note": "(H-GIKEFKREFQRIKDFLRNLV-OH)", "CC50": 9.9}
{"compound": "CC[C@H](C)[C@H](NC(=O)CN)C(=O)N[C@@H](CCCCN)C(=O)N[C@@H](CCC(=O)O)C(=O)N[C@@H](Cc1c[nH]c2ccccc12)C(=O)N[C@@H](CCCCN)C(=O)N[C@@H](CCCNC(=N)N)C(=O)N[C@H](C(=O)N[C@H](C(=O)N[C@@H](CCC(N)=O)C(=O)N[C@@H](CCCNC(=N)N)C(=O)N[C@H](C(=O)N[C@@H](CCCCN)C(=O)N[C@@H](CC(=O)O)C(=O)N[C@@H](Cc1ccccc1)C(=O)N[C@@H](CC(C)C)C(=O)N[C@@H](CCCNC(=N)N)C(=O)N[C@@H](CC(N)=O)C(=O)N[C@@H](CC(C)C)C(=O)N[C@H](C(=O)O)C(C)C)[C@@H](C)CC)C(C)C)[C@@H](C)CC", "note": "(H-GIKEWKRIVQRIKDFLRNLV-OH)", "CC50": 23.6}
